Patent EP2818472A1, “Imidazo[4,5-c]pyridine and pyrrolo[3,2-c]pyridine compounds as G-protein-coupled receptor kinase 5 (GRK5) modulators” (Max-Planck-Gesellschaft zur Förderung der Wissenschaften …, priority 2013, dated 2014)

tested on: beta-TC6 cells; test: Insulin HTRF assay (relative activity Ar) in beta-TC6 cells; type: cell-based, mouse; conditions: Mus musculus, Beta-TC6, 4 h, insulin HTRF, supernatant of beta-TC6 cells, incubation with test compound at 37°C for 2, 3, 4h; read-out: Ar (relative activity)
In short: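 beta-TC6 cells (15k/well, seeded 24 or 48 h) washed, then exposed to compound in induction buffer (0.5% DMSO final) for 2, 3 or 4 h at 37°C.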

Q: How did the Emax turn out when CNc1nc2cnc(Nc3cccc(O)c3)cc2n1-c1ccccc1 [Compound 513, 3-[[2-(methylamino)-1-phenyl-imidazo[4,5-c]pyridin-6-yl]amino]phenol] was run?
A: The Emax was 50 to 100%.

Q: Which Emax does the source give for CNc1nc2cnc(-c3cccs3)cc2n1-c1ccccc1 [Compound 514, N-methyl-1-phenyl-6-(2-thienyl)imidazo[4,5-c]pyridin-2-amine] here?
A: The Emax was 30 to 50%.

Q: With CNc1nc2cnc(Nc3ccc(C(=O)N(C)C)cc3)cc2n1-c1ccccc1 [Compound 515, N,N-dimethyl-4-[[2-(methylamino)-1-phenyl-imidazo[4,5-c]pyridin-6-yl]amino]benzamide] as the molecule, how does the Emax read?
A: The Emax was 50 to 100%.

Q: For CNc1nc2cnc(Nc3cccc(NC(C)=O)c3)cc2n1-c1ccccc1 [Compound 516, N-[3-[[2-(methylamino)-1-phenyl-imidazo[4,5-c]pyridin-6-yl]amino]phenyl]acetamide], which Emax is on record?
A: The Emax was 50 to 100%.

Q: Which Emax does the source give for CNc1nc2cnc(Nc3cccc(C(C)=O)c3)cc2n1-c1ccccc1 [Compound 517, 1-[3-[[2-(methylamino)-1-phenyl-imidazo[4,5-c]pyridin-6-yl]amino]phenyl]ethanone] here?
A: Its Emax is 50 to 100%.

Q: How did the Emax turn out when CNc1nc2cnc(Nc3ccc(S(C)(=O)=O)cc3)cc2n1-c1ccccc1 [Compound 518, N2-methyl-N6-(4-methylsulfonylphenyl)-1-phenyl-imidazo[4,5-c]pyridine-2,6-diamine] was run?
A: Its Emax is 50 to 100%.

Q: CNc1nc2cnc(Nc3cc(OC)c(OC)c(OC)c3)cc2n1Cc1ccco1 [Compound 519, 1-(2-furylmethyl)-N2-methyl-N6-(3,4,5-trimethoxyphenyl)imidazo[4,5-c]pyridine-2,6-diamine] was tested. Which Emax did it give?
A: The Emax was 50 to 100%.

Q: With CNc1nc2cnc(Nc3ccc(OC)c(OC)c3)cc2n1Cc1ccco1 [Compound 520, N6-(3,4-dimethoxyphenyl)-1-(2-furylmethyl)-N2-methyl-imidazo[4,5-c]pyridine-2,6-diamine] as the molecule, how does the Emax read?
A: Its Emax is 50 to 100%.

Q: CNc1nc2cnc(Nc3ccc(N4CCOCC4)cc3)cc2n1Cc1ccco1 [Compound 521, 1-(2-furylmethyl)-N2-methyl-N6-(4-morpholinophenyl)imidazo[4,5-c]pyridine-2,6-diamine] was tested. Which Emax did it give?
A: Its Emax is greater than 100%.

Q: How did the Emax turn out when CNc1nc2cnc(Nc3cccc(N(C)C)c3)cc2n1Cc1ccco1 [Compound 522, N6-[3-(dimethylamino)phenyl]-1-(2-furylmethyl)-N2-methyl-imidazo[4,5-c]pyridine-2,6-diamine] was run?
A: Its Emax is 30 to 50%.

Q: For CNc1nc2cnc(Nc3ccc(OC)cc3)cc2n1Cc1ccco1 [Compound 523, 1-(2-furylmethyl)-N6-(4-methoxyphenyl)-N2-methyl-imidazo[4,5-c]pyridine-2,6-diamine], which Emax is on record?
A: Its Emax is 50 to 100%.

Q: How did the Emax turn out when CNc1nc2cnc(Nc3ccc4c(c3)OCO4)cc2n1Cc1ccco1 [Compound 524, N6-(1,3-benzodioxol-5-yl)-1-(2-furylmethyl)-N2-methyl-imidazo[4,5-c]pyridine-2,6-diamine] was run?
A: Its Emax is 50 to 100%.

Q: For CNc1nc2cnc(-c3ccc(N(C)C)cc3)cc2n1Cc1ccccc1 [Compound 525, 1-benzyl-6-(4-dimethylaminophenyl)-N-methyl-imidazo[4,5-c]pyridin-2-amine], which Emax is on record?
A: Its Emax is 30 to 50%.

Q: Which Emax does the source give for CNc1nc2cnc(Nc3cc(OC)c(OC)c(OC)c3)cc2n1Cc1ccccc1 [Compound 526, 1-benzyl-N2-methyl-N6-(3,4,5-trimethoxyphenyl)imidazo[4,5-c]pyridine-2,6-diamine] here?
A: The Emax was 50 to 100%.

Q: CNc1nc2cnc(Nc3ccc(NC(C)=O)cc3)cc2n1Cc1ccccc1 [Compound 527, N-[4-[[1-benzyl-2-(methylamino)imidazo[4,5-c]pyridin-6-yl]amino]phenyl]acetamide] was tested. Which Emax did it give?
A: The Emax was 50 to 100%.

Q: For CNc1nc2cnc(Nc3ccc4c(c3)OCCO4)cc2n1Cc1ccccc1 [Compound 528, 1-benzyl-N6-(2,3-dihydro-1,4-benzodioxin-6-yl)-N2-methyl-imidazo[4,5-c]pyridine-2,6-diamine], which Emax is on record?
A: Its Emax is 50 to 100%.

Q: For CNc1nc2cnc(-c3ccccc3Oc3ccccc3)cc2n1Cc1ccccc1 [Compound 529, 1-benzyl-N-methyl-6-(2-phenoxyphenyl)imidazo[4,5-c]pyridin-2-amine], which Emax is on record?
A: Its Emax is 30 to 50%.

Q: CNc1nc2cnc(Nc3cccc(C)c3)cc2n1Cc1ccccc1 [Compound 530, 1-benzyl-N2-methyl-N6-(m-tolyl)imidazo[4,5-c]pyridine-2,6-diamine] was tested. Which Emax did it give?
A: The Emax was 30 to 50%.

Q: CNc1nc2cnc(Nc3ccc(OC)cc3)cc2n1Cc1ccccc1 [Compound 531, 1-benzyl-N6-(4-methoxyphenyl)-N2-methyl-imidazo[4,5-c]pyridine-2,6-diamine] was tested. Which Emax did it give?
A: Its Emax is 30 to 50%.

Q: CNc1nc2cnc(-c3cccc(Cl)c3)cc2n1Cc1ccccc1 [Compound 532, 1-benzyl-6-(3-chlorophenyl)-N-methyl-imidazo[4,5-c]pyridin-2-amine] was tested. Which Emax did it give?
A: The Emax was 50 to 100%.

Q: With CNc1nc2cnc(-c3cccc(O)c3)cc2n1Cc1ccccc1 [Compound 533, 3-[1-benzyl-2-(methylamino)imidazo[4,5-c]pyridin-6-yl]phenol] as the molecule, how does the Emax read?
A: Its Emax is 50 to 100%.

Q: Which Emax does the source give for CNc1nc2cnc(Nc3ccc4c(c3)OCO4)cc2n1Cc1ccccc1 [Compound 534, N6-(1,3-benzodioxol-5-yl)-1-benzyl-N2-methyl-imidazo[4,5-c]pyridine-2,6-diamine] here?
A: Its Emax is 50 to 100%.

Q: CNc1nc2cnc(Nc3cccc(O)c3)cc2n1Cc1ccccc1 [Compound 535, 3-[[1-benzyl-2-(methylamino)imidazo[4,5-c]pyridin-6-yl]amino]phenol] was tested. Which Emax did it give?
A: The Emax was 50 to 100%.

Q: For CNc1nc2cnc(Nc3ccc(OC)c(O)c3)cc2n1Cc1ccccc1 [Compound 536, 5-[[1-benzyl-2-(methylamino)imidazo[4,5-c]pyridin-6-yl]amino]-2-methoxy-phenol], which Emax is on record?
A: Its Emax is 50 to 100%.

Q: For CNc1nc2cnc(Nc3ccc(C(=O)N(C)C)cc3)cc2n1Cc1ccccc1 [Compound 537, 4-[[1-benzyl-2-(methylamino)imidazo[4,5-c]pyridin-6-yl]amino]-N,N-dimethyl-benzamide], which Emax is on record?
A: The Emax was 50 to 100%.

Q: How did the Emax turn out when CNc1nc2cnc(Nc3cccc(NC(C)=O)c3)cc2n1Cc1ccccc1 [Compound 538, N-[3-[[1-benzyl-2-(methylamino)imidazo[4,5-c]pyridin-6-yl]amino]phenyl]acetamide] was run?
A: Its Emax is 50 to 100%.

Q: Which Emax does the source give for CNc1nc2cnc(Nc3cc(OC)c(OC)c(OC)c3)cc2n1-c1cccc(C(F)(F)F)c1 [Compound 539, N2-methyl-1-[3-(trifluoromethyl)phenyl]-N6-(3,4,5-trimethoxyphenyl)imidazo[4,5-c]pyridine-2,6-diamine] here?
A: Its Emax is 30 to 50%.

Q: With CNc1nc2cnc(Nc3ccc(NC(C)=O)cc3)cc2n1-c1cccc(C(F)(F)F)c1 [Compound 540, N-[4-[[2-(methylamino)-1-[3-(trifluoromethyl)phenyl]imidazo[4,5-c]pyridin-6-yl]amino]phenyl]acetamide] as the molecule, how does the Emax read?
A: Its Emax is 30 to 50%.

Q: How did the Emax turn out when CNc1nc2cnc(Nc3ccc(O)cc3)cc2n1-c1cccc(C(F)(F)F)c1 [Compound 541, 4-[[2-(methylamino)-1-[3-(trifluoromethyl)phenyl]imidazo[4,5-c]pyridin-6-yl]amino]phenol] was run?
A: Its Emax is 50 to 100%.

Q: For CNc1nc2cnc(Nc3ccc(C(N)=O)cc3)cc2n1-c1cccc(C(F)(F)F)c1 [Compound 542, 4-[[2-(methylamino)-1-[3-(trifluoromethyl)phenyl]imidazo[4,5-c]pyridin-6-yl]amino]benzamide], which Emax is on record?
A: Its Emax is 30 to 50%.

Q: Which Emax does the source give for CNc1nc2cnc(Nc3ccc(OC)cc3OC)cc2n1-c1cccc(C(F)(F)F)c1 [Compound 543, N6-(2,4-dimethoxyphenyl)-N2-methyl-1-[3-(trifluoromethyl)phenyl]imidazo[4,5-c]pyridine-2,6-diamine] here?
A: Its Emax is 30 to 50%.
